Test systems include A498 renal; LOX IMVI melanoma; PC-3 prostate; U251 CNS; NCI-H23 lung; MOLT-4 leukemia; TK-10 renal; BT-549 breast; HT29 colon; SF-268 CNS.
What all share (assay): growth of human tumour cells (NCI), 48 h

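Assay format: 96-well plates, 48-hour exposure. TGI: total growth inhibition.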 Some results are limits rather than exact numbers.

As for `CC(=O)N(CN1C(=O)CCC1C(=O)O)c1ccccc1` (centres undefined), the TGI in the test on A498 renal, with LOX IMVI melanoma, with PC-3 prostate, with U251 CNS, with NCI-H23 lung and with MOLT-4 leukemia was over 100 µM each time. Besides, the TGI in the test on TK-10 renal, with BT-549 breast, in the test with HT29 colon and with SF-268 CNS was over 100 µM each time.
Take `O=C1/C(=C/c2ccccc2)CCc2ccc(Cl)nc21`: the TGI in the test on A498 renal amounted to 34.6 µM; in the test on PC-3 prostate it was 29.9 µM; with U251 CNS, 16 µM; in the test on NCI-H23 lung, 45.5 µM; with MOLT-4 leukemia it was 5.93 µM; in the test on TK-10 renal it was 32.7 µM. Moreover, the TGI in the test on BT-549 breast was 32.1 µM; in the test with HT29 colon, 3.78 µM; with SF-268 CNS, over 64.8 µM.
As to `C/C(=C/CO[Si](C)(C)C(C)(C)C)C(=O)N(C)c1ccccc1I`, the TGI in the test on A498 renal came to 31 µM; with LOX IMVI melanoma it was 31.8 µM; in the test on PC-3 prostate it was 27 µM; with U251 CNS it was 28.6 µM; with NCI-H23 lung, 41.2 µM; in the test on MOLT-4 leukemia, 72.9 µM. In addition, the TGI in the test with TK-10 renal amounted to 33.3 µM; with BT-549 breast, 35.8 µM; with HT29 colon, 22.6 µM; in the test on SF-268 CNS, 33.4 µM.
For the compound `CN(CCc1ccc(Cl)c(Cl)c1)[C@H]1CCCC[C@H]1N1CCCC1`, the TGI with A498 renal, with LOX IMVI melanoma, in the test on PC-3 prostate, in the test on U251 CNS, in the test with NCI-H23 lung and in the test with MOLT-4 leukemia was over 100 µM throughout. Besides, the TGI in the test on TK-10 renal, in the test with BT-549 breast, in the test on HT29 colon and with SF-268 CNS was over 100 µM in each case.
Consider `Cc1cc(Cc2c(F)c(F)c(Cc3cc(C)no3)c(F)c2F)on1`, for which the TGI in the test with A498 renal, in the test on LOX IMVI melanoma, in the test with PC-3 prostate, in the test on U251 CNS, with NCI-H23 lung and in the test with MOLT-4 leukemia was over 100 µM each time. The TGI with TK-10 renal, in the test with BT-549 breast, in the test on HT29 colon and with SF-268 CNS was over 100 µM each time.
For the compound `COC(=O)C1=C(O)C(C(=O)OC)[C@@]2(O)[C@@H](C(=O)OC)C(c3ccc(OC(=O)/C(=C/c4ccc(Cl)cc4)c4ccc(Cl)cc4)cc3)C[C@@H]1[C@@H]2C(=O)OC` (some centres undefined), the TGI in the test with A498 renal was over 100 µM; in the test with LOX IMVI melanoma, 38.1 µM; in the test with PC-3 prostate it was over 100 µM; in the test on U251 CNS, over 100 µM; in the test on NCI-H23 lung, over 100 µM; with MOLT-4 leukemia it was over 100 µM. Moreover, the TGI was 73.7 µM with TK-10 renal, over 100 µM in the test with BT-549 breast, over 100 µM in the test with HT29 colon and over 100 µM in the test with SF-268 CNS.
As to `CCOC(=O)c1nc2c3c(ncn2n1)Oc1c(c(-c2ccccc2)nn1-c1ccccc1)C3c1ccc(Cl)cc1` (centres undefined), the TGI in the test with A498 renal, with LOX IMVI melanoma, with PC-3 prostate, in the test with U251 CNS, in the test with NCI-H23 lung and in the test with TK-10 renal was over 100 µM each time. Moreover, the TGI in the test with BT-549 breast, with HT29 colon and in the test with SF-268 CNS was over 100 µM throughout.
As for `COC(=O)c1sc(=S)sc1SCc1ccccc1CSc1sc(=S)sc1C(=O)OC`, the TGI with A498 renal, in the test on LOX IMVI melanoma, with PC-3 prostate, in the test on U251 CNS, in the test with NCI-H23 lung and in the test on MOLT-4 leukemia was over 100 µM each time. Also, the TGI in the test with TK-10 renal, with BT-549 breast, in the test on HT29 colon and with SF-268 CNS was over 100 µM throughout.
For `NC(N)=N/N=C/c1c(-c2ccc([N+](=O)[O-])cc2)nc2sccn12`, the TGI came out at 3.21 µM in the test with A498 renal; 2.93 µM in the test on PC-3 prostate; 2.95 µM in the test with U251 CNS; 3.46 µM in the test on NCI-H23 lung; 3.22 µM in the test on TK-10 renal; 3.44 µM with BT-549 breast. Further, the TGI in the test with HT29 colon stood at 2.95 µM.
As to `COc1ccc(/C=C/c2cc(O)cc(OC)c2)cc1`, the TGI in the test with A498 renal, in the test on PC-3 prostate, in the test with U251 CNS, in the test on NCI-H23 lung, with MOLT-4 leukemia and with TK-10 renal was over 100 µM each time. For the same compound, the TGI in the test with BT-549 breast, in the test on HT29 colon and with SF-268 CNS was over 100 µM each time.
Take `Cc1cc(S(=O)(=O)Nc2nnc3c(C(F)(F)F)cc(Cl)cn23)c(S)cc1Cl`: the TGI in the test on A498 renal, in the test on LOX IMVI melanoma, in the test on PC-3 prostate, in the test on U251 CNS, with MOLT-4 leukemia and in the test on TK-10 renal was over 100 µM in each case. The TGI with BT-549 breast, with HT29 colon and with SF-268 CNS was over 100 µM each time.
With `CCCCC[C@@H]1OCO[C@@]2(C)/C=C(C)/C=C/C(=O)O[C@H]([C@@H](C)[C@@H](O)[C@H](C)[C@@]3(O)C[C@@H](O[C@H]4C[C@@H](O)[C@H](O)[C@@H](C)O4)[C@H](C)[C@@H](C)O3)[C@@H](OC)/C=C/C=C(\C)C[C@@H]1[C@@H]2O` (stereo in doubt), the TGI in the test on A498 renal turned out to be 0.0829 µM; with PC-3 prostate it was 1.64 µM; in the test with U251 CNS it was 5.36 µM; in the test on NCI-H23 lung it was 11.5 µM; with MOLT-4 leukemia, 0.809 µM; with TK-10 renal, 8.83 µM. The TGI with BT-549 breast turned out to be 16.5 µM; in the test on HT29 colon, 0.0544 µM; in the test with SF-268 CNS it was 7.77 µM.
Regarding `COc1cc2cc(C(=O)N3CC(CCl)c4c3cc(N)c3ccccc43)[nH]c2cc1OCCN(C)C` (centres undefined), the TGI is under 0.005 µM in the test with A498 renal; 5.5 µM in the test on PC-3 prostate; 0.00833 µM with NCI-H23 lung; 17.4 µM in the test with MOLT-4 leukemia; 8.67 µM in the test with TK-10 renal; 0.409 µM in the test on BT-549 breast. The figures for the TGI in the test on HT29 colon and in the test on SF-268 CNS were 5.17 µM and 0.712 µM, respectively.
On to `COP(=O)(OC)C(N)CCSC` (centres undefined), for which the TGI with LOX IMVI melanoma, with PC-3 prostate, in the test on U251 CNS, in the test on NCI-H23 lung, with MOLT-4 leukemia and in the test on TK-10 renal was over 100 µM in each case. The TGI in the test with BT-549 breast, in the test on HT29 colon and in the test on SF-268 CNS was over 100 µM each time.

The values are drawn from PubChem BioAssay (NCI).
